Measured values as given in patent publication US7022311B1, “Powdery inhalational preparations and process for producing the same” (Kaken Pharmaceutical Co., Ltd., priority 1999, dated 2006).
Counter-ions that a name gives are not always drawn. Square brackets hold non-standard residues; d marks the D form. Peptide text beside a SMILES is read from it. d2Nal = N[C@H](Cc1ccc2ccccc2c1)C(=O)O

How the values were obtained:
[1] = Moisture absorption test (hygroscopic properties) of test carriers; format: physicochemical; design: key to % Moisture Absorption: x: Not possible to measure (because the samples deliquesced.); conditions: for % Moisture Absorption: 25° C.; for Hygroscopicity, result in words: moisture absorption tests, comparison of carriers
Experimental: For the objective of selecting a material suitable as the carrier for a dry powder inhalation, moisture absorption tests were performed on erythritol, xylitol, lactose, D-mannitol, Amalty, glucose, Stevia, Benecoat and aspartame. […] (Tables 1, 2, and 3)
In order to ascertain that trehalose is a material having properties suitable as a carrier for dry powder inhalations, it was compared to lactose, a well-known carrier for dry powder inhalation. A test was carried out for comparing hygroscopicity. The trehalose used was the product of Asahi Kasei Kogyo KK, and Lactose 325M from the DMV Company. […] (Table 4, 5)

[2] = In vitro lung delivery fraction test with multi-stage cascade impactor (Andersen sampler, Jethaler); format: physicochemical; conditions: Example 11: Pralmorelin dihydrochloride 5.0%, carrier erythritol 93.5%, micronized lactose 1.5%, 28.3 L/min
Experimental: Capsulated preparations (The Japanese Pharmacopeia No. 2 HPMC capsules: manufactured by Shionogi Qualicaps Co., Ltd.) which were filled with about 40 mg each of three dry powder inhalations were prepared and mounted on an inhaler device (Jethaler; Unisia Jecs Corp.) The Jethaler was then attached to the mouthpiece of a cascade impactor (Andersen sampler Model AN-200) and inspired at a flow rate of 28.3 L/min., thereby dispersing the micronized medication in the capsule and measuring the residual active ingredient in the capsule and in the inhaler device as well as the distribution of the active ingredient at each stage with liquid chromatography. It was confirmed that in the in vitro test with cascade impactor, the lung delivery fraction at stages 2–7 corresponding to the respiring fraction differed substantially depending on the different carrier particles.
(§1) Capsulated preparations (The Japanese Pharmacopeia No. 2HPMC capsules: manufactured by Shionogi Qualicaps Co., Ltd.), which were filled with about 40 mg each of three dry powder inhalations, were prepared and mounted on an inhaler device (Jethaler®; Unisia Jecs Corp.). The Jethaler® brand device was then attached to the mouthpiece of a cascade impactor (Andersen sampler; Model AN-200) and inspired at a flow rate of 28.3 L/min., thereby dispersing the dry powder inhalation in the capsule and measuring the residual active ingredient in the capsule and in the inhaler device as well as the distribution of the active ingredient at each stage with liquid chromatography.
(§2) A capsulated preparation (The Japanese Pharmacopeia No. 2HPMC capsules: manufactured by Shionogi Qualicaps Co., Ltd.) which was filled with about 40 mg of the prepared dry powder inhalations was prepared and mounted on an inhaler device (Jethaler; Unisia Jecs Corp.) The Jethaler was then attached to the mouthpiece of a cascade impactor (Andersen sampler; Model AN-200) and inspired at a flow rate of 28.3 L/min., thereby dispersing the dry powder inhalation in the capsule and measuring the residual active ingredient in the capsule and in the inhaler device as well as the distribution of the active ingredient at each stage with liquid chromatography.
as §1, with “A capsulated preparation (The” for “Capsulated preparations (The”, “which was” for “which were”, “mg” for “mg each”, “chromatography. […]” for “chromatography.”
as §2, with “2 HPMC” for “2HPMC”, “Ltd.)” for “Ltd.) which was”, “inhalation” for “inhalations”

[3] = Table 2, Humidity 75%, 24 Hours
[4] = Table 2, Humidity 75%, 48 Hours
[5] = Table 2, Humidity 75%, 72 Hours
[6] = Table 2, Humidity 75%, 168 Hours
[7] = Table 3, Humidity 90%, 16 Hours
[8] = Table 3, Humidity 90%, 24 Hours
[9] = Table 3, Humidity 90%, 48 Hours
[10] = Table 3, Humidity 90%, 72 Hours
[11] = Table 3, Humidity 90%, 168 Hours
[12] = Table 1, Humidity 60%, 24 Hours
[13] = Table 1, Humidity 60%, 72 Hours
[14] = Table 1, Humidity 60%, 168 Hours
[15] = Table 1, Humidity 60%, 366 Hours
[16] = Table 2, Humidity 75%, 336 Hours
[17] = Table 4, Humidity 60%, 24 Hours
[18] = Table 4, Humidity 60%, 72 Hours
[19] = Table 4, Humidity 60%, 168 Hours
[20] = Table 4, Humidity 60%, 366 Hours
[21] = Table 5, Humidity 75%, 48 Hours
[22] = Table 5, Humidity 75%, 72 Hours
[23] = Table 5, Humidity 75%, 168 Hours

% Moisture Absorption [1, 3]	% Moisture Absorption [1, 4]	% Moisture Absorption [1, 5]	% Moisture Absorption [1, 6]	% Moisture Absorption [1, 7]	% Moisture Absorption [1, 8]	% Moisture Absorption [1, 9]	% Moisture Absorption [1, 10]	% Moisture Absorption [1, 11]	% Moisture Absorption [1, 12]	% Moisture Absorption [1, 13]	% Moisture Absorption [1, 14]	% Moisture Absorption [1, 15]	% Moisture Absorption [1, 16]	further results	SMILES
0.478%	1.138%	1.171%	1.252%	0.775%	0.971%	2.513%	3.373%	8.391%							OC[C@@H](O)[C@@H](O[C@H]1O[C@H](CO)[C@@H](O)[C@H](O)[C@H]1O)[C@H](O)[C@@H](O)CO [Amalty]
6.539%	10.877%	10.985%	11.163%	10.476%	10.741%	11.448%	11.521%	11.749%							COC(=O)[C@H](Cc1ccccc1)NC(=O)[C@@H](N)CC(=O)O [Aspartame] (H-Asp-Phe-OMe)
0.019%	0.019%	0.019%	0.028%	0.539%	0.672%	0.806%	0.916%	1.122%							OC[C@@H](O)[C@@H](O)[C@H](O)[C@H](O)CO [D-Mannitol]
0.008%	0.011%	0.014%	0.010%		0.055%	0.070%	0.070%	0.070%	0.000%	0.000%	0.000%	0.000%	0.012%	Hygroscopicity, result in words [1]: least hygroscopic	OC[C@@H](O)[C@@H](O)CO [Erythritol]
0.029%		0.031%	0.033%		0.094%		0.090%	0.092%	0.000%	0.000%	0.000%	0.000%	0.031%	% Moisture Absorption [1, 17]: 0.000%; % Moisture Absorption [1, 18]: 0.000%; % Moisture Absorption [1, 19]: 0.000%; % Moisture Absorption [1, 20]: 0.000%; % Moisture Absorption ([1]; Table 5, Humidity 75%, 16 Hours): 0.029%; % Moisture Absorption [1, 21]: 0.031%; % Moisture Absorption [1, 22]: 0.033%; % Moisture Absorption [1, 23]: 0.031%	OC[C@H]1O[C@@H](O[C@H]2[C@H](O)[C@@H](O)C(O)O[C@@H]2CO)[C@H](O)[C@@H](O)[C@H]1O (stereo partly shown) [Lactose 325M, Lactose]
														Residual and Distributed Fractions of Active Ingredient (%): Capsule [2]: 3.6%; Residual and Distributed Fractions of Active Ingredient (%): Inhaler device [2]: 11.5%; Residual and Distributed Fractions of Active Ingredient (%): Stage 0 [2]: 7.7%; Residual and Distributed Fractions of Active Ingredient (%): Stage 1 [2]: 26.6%	C[C@H](NC(=O)[C@@H](Cc1ccc2ccccc2c1)NC(=O)[C@@H](C)N)C(=O)N[C@@H](Cc1c[nH]c2ccccc12)C(=O)N[C@H](Cc1ccccc1)C(=O)N[C@@H](CCCCN)C(N)=O [Pralmorelin dihydrochloride, reference compound] (H-[dA][d2Nal]AW[dF]K-NH2)
														% Moisture Absorption [1, 17]: 0.000%; % Moisture Absorption [1, 18]: 0.000%; % Moisture Absorption [1, 19]: 0.000%; % Moisture Absorption [1, 20]: 0.000%; % Moisture Absorption [1, 21]: 0.008%; % Moisture Absorption [1, 22]: 0.023%; % Moisture Absorption [1, 23]: 0.020%; Hygroscopicity, result in words [1]: only slightly hygroscopic	OC[C@H]1O[C@H](O[C@H]2O[C@H](CO)[C@@H](O)[C@H](O)[C@H]2O)[C@H](O)[C@@H](O)[C@@H]1O [Trehalose]
0.087%	0.104%	0.126%	0.124%		3.796%	17.917%	x	x	0.000%	0.000%	0.019%	0.021%	0.126%		OC[C@@H](O)[C@H](O)[C@@H](O)CO [Xylitol]
